# Experimental data reported in the METLIN SMRT retention time set (Domingo-Almenara et al. 2019).
# Assay: gradient 5% acetonitrile 3 min, to 50% in 2 min, to 85% in 15 min, held 3 min, 100 µL/min
# Conditions: column: Zorbax Extend-C18 2.1 x 50 mm; eluents: water / acetonitrile, 0.1% formic acid
# Procedure, shortened: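 The system's dead and dwell volumes were 40 μL and 900 μL, with a Zorbax Extend-C18 column (2.1 × 50 mm, 1.8 μm) run at 100 μL/min in water and acetonitrile containing 0.1% formic acid each. Pure standards were analyzed in mixtures of ~100 molecules by HPLC–quadrupole time-of-flight mass spectrometry in positive and negative ionization mode. Retention time was assigned from computationally picked, manually inspected adduct peaks.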
row,Compound,RP-LC retention time
1,COc1cc(-c2nc3ncccn3c2Nc2c(C)cccc2C)ccc1O,683 s
2,COC(=O)C1=CN(c2cc(F)ccc2C)c2cc(F)ccc2S1(=O)=O,842 s
3,O=C(Nc1ccccc1F)N1CCC(n2cnc3ccc(Cl)cc3c2=O)CC1,806 s
4,CCc1ccc(NC(=O)N2CCCC(C)(C(=O)NCc3cccc(OC)c3)C2)cc1 (stereo unspecified),968 s
5,COc1ccccc1N1CCN(C(=O)c2ccc(OCc3nc(C4CC4)cs3)cc2)CC1,911 s
6,O=C(CCCc1nnc(C(=O)Nc2ccccc2)s1)NCCc1c[nH]c2ccc(Cl)cc12,889 s
7,O=C(c1nnn(Cc2ccc(Cl)cc2)c1-n1cccc1)N1CCSCC1,981 s
8,CCN(CC)CCNC(=O)c1ccc(CS(=O)(=O)c2ccc(Br)cc2)o1,634 s
9,Cn1cnc2c(F)c(Nc3ccc(Br)cc3Cl)c(C(=O)NOCCO)cc21,789 s
10,Cc1ccc(-c2nnc(-c3cccc(S(=O)(=O)NCc4ccco4)c3)o2)cc1,968 s
11,CCCCn1c(=O)c2ccccc2n(Cc2nc(-c3ccc(CC)cc3)no2)c1=O,1310 s
12,O=C(Nc1ccccc1)c1n[nH]c2c1CCCCCC2,957 s
13,COc1ccc(OC)c2sc(N(CCN(C)C)C(=O)c3nc4ccccc4s3)nc12,715 s
14,Cn1c(=O)n(C)c2cc(CNc3ccc(Cl)cc3)ccc21,892 s
15,COCCNC(=O)NCc1ccc2c(c1)N(C(=O)c1ccccc1)CC2,696 s
16,COc1cc(-c2noc(Cc3nnc(-c4cc(F)cc(F)c4)o3)n2)cc(OC)c1OC,968 s
17,Cc1[nH]c(C(=O)N2CCC(CC(=O)NCCC3=CCCCC3)CC2)c(C)c1C,910 s
18,O=C(NC1CCCCCCC1)C1CCN(C(=O)c2cccn2-c2cccnc2)CC1,797 s
19,O=C(Nc1ccc(F)c(F)c1)C1CCN(S(=O)(=O)c2ccc(-c3noc(C4CC4)n3)cc2)CC1,1050 s
20,COCc1cc2nn(CC(=O)Nc3ccccc3F)c(=O)n2c(-c2ccccc2)n1,795 s
21,CCC(=O)Nc1cc2c(cc1N1CCC(C)CC1)n(C)c(=O)c(=O)n2C,773 s
22,COc1ccccc1N1CCN(C(=O)c2cc(S(=O)(=O)N3CCCCC3)cn2C)CC1,893 s
23,Cc1cccc(Nc2nc(C(=O)NCc3ccc(C)o3)nc3ccccc23)c1,856 s

row,Compound,RP-LC retention time
1,CCc1ccc(OCc2nc(C)c(C(=O)Nc3nc(-c4ccc(OC)cc4)cs3)s2)cc1,1290 s
2,CCCCn1c(=O)c2ccccc2n(Cc2nc(-c3ccccc3Cl)no2)c1=O,1160 s
3,Cc1cccc(-c2noc(Cn3nc(-c4ccc(F)cc4)ccc3=O)n2)c1,1060 s
4,Clc1ccc(-c2nc(NCc3cccnc3)c3ccccc3n2)cc1,601 s
5,CC(=O)N(C1CCOCC1)C1CCN(C(=O)c2ccc(C)s2)CC1,673 s
6,NC(=O)COC1CCC12CCN(C(=O)C1CCCC1)CC2 (stereo unspecified),693 s
7,CSc1ccc(Cl)c(-c2nc(-c3ccc4oc(C)nc4c3)no2)c1,1260 s
8,CCCCNc1cc(Cl)nc(N)n1,690 s
9,CC(C)NC(=O)N1CC(c2nc(-c3cccnc3)no2)C2(CCOCC2)C1 (stereo unspecified),635 s
10,CC(C)n1nnc2cc(S(=O)(=O)N3CCCC3C(=O)N3CCN(c4ccccn4)CC3)ccc21 (stereo unspecified),609 s
11,COc1cccc(Cn2cccc(S(=O)(=O)N3CCC(C)CC3)c2=O)c1,954 s
12,Cc1ccccc1-c1nnc(CSc2nnc(NC(=O)Cc3ccccc3Cl)s2)o1,977 s
13,CCC(CC)C(=O)N1CCN(Cc2nc3cc(C(=O)N4CCCC4)ccc3n2C)CC1,598 s
14,CC(C)N1CCN(C(=O)c2sc3ncccc3c2-n2cccc2)CC1,597 s
15,COc1ccc(-c2cc(C(=O)NCC(c3ccco3)N(C)C)no2)cc1 (stereo unspecified),661 s
16,COc1ccccc1NC(=O)N1CCCC1c1nc(-c2ccc(F)cc2F)no1 (stereo unspecified),1000 s
17,O=C(NC1CC1)c1c2c(nc3ccc(F)cc13)CCC2,650 s
18,CCSc1ccccc1C(=O)NCC1CCN(S(=O)(=O)C2CC2)CC1,725 s
19,COC(=O)N1CCc2ccc(F)cc2C1C(=O)Nc1ncc(C)s1 (stereo unspecified),788 s
20,O=C(Nc1ccc(Cl)cc1)N1CCCC1c1nc(-c2ccccc2)no1 (stereo unspecified),1040 s
21,Brc1ccc(CSc2nnc3ccc(-c4cccnc4)nn23)cc1,723 s
22,CN(C)c1ccc(N2C=C(C(=O)N3CCOCC3)S(=O)(=O)c3ccc(F)cc32)cc1,828 s

# Next, values leading:
row,RP-LC retention time,Compound
1,623 s,CCOC(=O)c1c(S(=O)(=O)N2CCC(C(=O)Nc3cccnc3)CC2)c(C)n(C)c1C
2,998 s,CCn1cccc1-c1nc(C)c(C(=O)NCCc2ccc(OC)c(OC)c2)s1
3,719 s,Cc1nn(-c2ccc(N3CCOCC3)nn2)c(C)c1CCC(=O)Nc1ccc(F)cc1F
4,767 s,Cc1noc(C)c1-c1ccc(S(=O)(=O)NCC2CCCO2)cc1 (stereo unspecified)
5,733 s,CCCCNC(=O)C1CCCN(c2nnc(C)c3c(C)n(-c4ccc(C)cc4)nc23)C1 (stereo unspecified)
6,765 s,CC(=O)c1cccc(NC(=O)CCc2c(C)nn(-c3cc(N4CCCC4)ncn3)c2C)c1
7,808 s,CCOC(=O)c1c(S(=O)(=O)N2CCC(C(=O)NCc3ccc(F)cc3)CC2)c(C)n(C)c1C
8,742 s,CCn1c(C)c(CN2CCC(C(=O)NCc3ccccc3C)CC2)c2ccccc21
9,893 s,Cc1ccc(C)c(N2CCN(C(=O)Cn3cnc4nc5c(cc4c3=O)CCCC5)CC2)c1
10,1010 s,COc1cccc(CNC(=O)C2CCCN(c3nc4ccccc4nc3OC)C2)c1 (stereo unspecified)
11,695 s,Cc1ccc(-c2ccc(-n3nc(C)c(S(=O)(=O)N4CCN(C)CC4)c3C)nn2)cc1
12,584 s,Cn1c(=O)c2cc(C(=O)NCCc3ccncc3)nn2c2ccccc21
13,628 s,CC1CCCCN1CCNC(=O)c1nc2nc(-c3ccco3)cc(C(F)(F)F)n2n1 (stereo unspecified)
14,608 s,Cc1ccccc1CC(=O)N1CCN(c2cc(C)n3cnnc3n2)CC1
15,759 s,Cc1ccc(CN2CCN(CC(=O)Nc3ccc(Cl)cn3)C(=O)C2=O)cc1
16,756 s,CCCNC(=O)C1CCN(Cc2cc3ccccc3n2Cc2cccc(Cl)c2)CC1
17,675 s,O=C(Nc1ccccn1)C1CCCN(c2ncnc3c2nc2n3CCCCC2)C1 (stereo unspecified)
18,683 s,CCc1cc(C(=O)Nc2ccc(N3CCOCC3)cc2)nc2cc(-c3ccco3)nn12
19,926 s,CC(C)CNC(=O)c1ccc(-c2nc3cccnc3n2C2CCCCC2)cc1
20,1080 s,Cc1cc(C)c(NC(=O)CSc2nccc(N3CCN(c4cc(C)ccc4C)CC3)n2)c(C)c1
21,647 s,CCNC(=O)C1CCCN(c2nc3ncn(CC(=O)Nc4ccccc4F)c(=O)c3s2)C1 (stereo unspecified)
